Measurements as given in ChEMBL document CHEMBL1201862, “PubChem BioAssay data set” (2004).
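Protocol summary: plate cells (96-well), add compound at 5 concentrations, incubate 48 h, interpolate endpoints linearly. At the GI50, growth is halved.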 Active and inactive are the calls of the source. Rule as the data show it: active = GI50 up to about 1.1 µM and inactive = higher.

Legend:
Assay in all cases: DTP human tumour cell line panel, 48 h
HL-60 = tested on: HL-60
TK-10 = tested on: TK-10
UO-31 = tested on: UO-31
KM12 = tested on: KM12
U-251 = tested on: U-251
OVCAR-5 = tested on: OVCAR-5
SR = tested on: SR
RPMI-8226 = tested on: RPMI-8226
SK-MEL-2 = tested on: SK-MEL-2
OVCAR-3 = tested on: OVCAR-3
NCI-H226 = tested on: NCI-H226
DU-145 = tested on: DU-145
SK-MEL-28 = tested on: SK-MEL-28
SK-MEL-5 = tested on: SK-MEL-5
786-0 = tested on: 786-0
MDA-N = tested on: MDA-N
ACHN = tested on: ACHN
M14 = tested on: M14
HOP-62 = tested on: HOP-62
OVCAR-8 = tested on: OVCAR-8

SMILES | GI50 (HL-60) | GI50 (TK-10) | GI50 (UO-31) | GI50 (KM12) | GI50 (U-251) | GI50 (OVCAR-5) | GI50 (SR) | GI50 (RPMI-8226) | GI50 (SK-MEL-2) | GI50 (OVCAR-3) | GI50 (NCI-H226) | GI50 (DU-145) | GI50 (SK-MEL-28) | GI50 (SK-MEL-5) | GI50 (786-0) | GI50 (MDA-N) | GI50 (ACHN) | GI50 (M14) | GI50 (HOP-62) | GI50 (OVCAR-8)
COc1c(OC)c(OC)c2c(=O)cc(-c3ccc(OC(C)C)cc3)oc2c1OC | 2.07 µM (inactive) | > 38.6 µM (inactive) | 18.2 µM (inactive) | 30.9 µM (inactive) | > 37.2 µM (inactive) | 18.8 µM (inactive) | 0.369 µM (active) | 3.75 µM (inactive) | 20.8 µM (inactive) | 17.9 µM (inactive) | 15.1 µM (inactive) | 26.1 µM (inactive) | 38.4 µM (inactive) | 8.97 µM (inactive) | > 34.1 µM (inactive) | 31.8 µM (inactive) | 34.2 µM (inactive) | 19.1 µM (inactive) | 18.5 µM (inactive) | 14.7 µM (inactive)
O=c1ccc2c(Cl)cccc2o1 | > 100 µM (inactive) | > 100 µM (inactive) | > 100 µM (inactive) | > 100 µM (inactive) | > 100 µM (inactive) | > 100 µM (inactive) | > 100 µM (inactive) | > 100 µM (inactive) | > 100 µM (inactive) | > 100 µM (inactive) | > 100 µM (inactive) | > 100 µM (inactive) | > 100 µM (inactive) | > 100 µM (inactive) | > 10 µM (inactive) | > 100 µM (inactive) | > 100 µM (inactive) | > 100 µM (inactive) | > 100 µM (inactive) | > 100 µM (inactive)
Cc1nnc2n1N=C(c1ccccc1)/C(=C/c1ccc(-c3ccc(Cl)cc3)o1)S2 | 4.36 µM (inactive) | 13.4 µM (inactive) | 12.8 µM (inactive) | 13.4 µM (inactive) | 12.1 µM (inactive) | 20.6 µM (inactive) | 5.77 µM (inactive) | 5.11 µM (inactive) | 13.2 µM (inactive) | 10.5 µM (inactive) | 14.3 µM (inactive) | 14.3 µM (inactive) | – | 13.6 µM (inactive) | 13.1 µM (inactive) | 11.6 µM (inactive) | 13.5 µM (inactive) | 17.9 µM (inactive) | 15.3 µM (inactive) | –
O=C(/C=C/c1ccc(F)c(F)c1)OCCc1ccccc1 | > 100 µM (inactive) | > 100 µM (inactive) | 90.4 µM (inactive) | > 100 µM (inactive) | > 100 µM (inactive) | > 100 µM (inactive) | 90.6 µM (inactive) | 77.6 µM (inactive) | > 100 µM (inactive) | > 100 µM (inactive) | > 100 µM (inactive) | > 100 µM (inactive) | > 100 µM (inactive) | 38.5 µM (inactive) | > 100 µM (inactive) | 73.5 µM (inactive) | > 100 µM (inactive) | > 100 µM (inactive) | > 100 µM (inactive) | > 100 µM (inactive)
c1ccc(CN2CCCN3CCN(CCCN(Cc4ccccc4)CC3)CC2)cc1 | 24.7 µM (inactive) | 55.6 µM (inactive) | > 100 µM (inactive) | 31.6 µM (inactive) | 36.4 µM (inactive) | > 100 µM (inactive) | 43 µM (inactive) | 13 µM (inactive) | 22.2 µM (inactive) | 27.2 µM (inactive) | 73.6 µM (inactive) | 68.5 µM (inactive) | 39.4 µM (inactive) | 19.3 µM (inactive) | 42.2 µM (inactive) | 30.5 µM (inactive) | > 100 µM (inactive) | 38 µM (inactive) | > 100 µM (inactive) | 50.9 µM (inactive)
COc1cc(C2c3cc4c(cc3OC(N3CCOCC3)C2C)OCO4)cc(OC)c1OC (stereo not drawn) | 0.412 µM (active) | 4.42 µM (inactive) | 1.86 µM (inactive) | 0.367 µM (active) | 0.893 µM (active) | 3.68 µM (inactive) | 0.466 µM (active) | 0.778 µM (active) | 2.02 µM (inactive) | 0.589 µM (active) | 2.6 µM (inactive) | 0.368 µM (active) | 17.2 µM (inactive) | 0.378 µM (active) | 3.18 µM (inactive) | 0.148 µM (active) | 3.85 µM (inactive) | 0.708 µM (active) | 3.63 µM (inactive) | 1.62 µM (inactive)
O=C1C=CC(=O)N1c1ccc2c(c1)Cc1cc(NC(=O)C(F)(F)F)ccc1-2 | 12.2 µM (inactive) | 3 µM (inactive) | 13.6 µM (inactive) | 18.5 µM (inactive) | 18.2 µM (inactive) | 16.7 µM (inactive) | 2.74 µM (inactive) | 2.9 µM (inactive) | 18.4 µM (inactive) | 15.7 µM (inactive) | 4.84 µM (inactive) | 16 µM (inactive) | 18.1 µM (inactive) | 47 µM (inactive) | 5.58 µM (inactive) | 17.1 µM (inactive) | 4.43 µM (inactive) | 20.9 µM (inactive) | 20.1 µM (inactive) | 17.7 µM (inactive)
O=C(NNC(=O)c1ccccc1O)c1cccs1 | 50 µM (inactive) | > 100 µM (inactive) | 50.1 µM (inactive) | 39.4 µM (inactive) | > 100 µM (inactive) | 45 µM (inactive) | 71 µM (inactive) | > 100 µM (inactive) | > 100 µM (inactive) | 23.7 µM (inactive) | 5.79 µM (inactive) | > 100 µM (inactive) | > 100 µM (inactive) | > 100 µM (inactive) | > 100 µM (inactive) | > 100 µM (inactive) | – | 35.5 µM (inactive) | 42.6 µM (inactive) | 32.1 µM (inactive)
CCN(CC)CCN(/C(=N/c1ccccc1)N1CCCCC1)c1ccccc1 | 1.63 µM (inactive) | 13.2 µM (inactive) | 8.07 µM (inactive) | 5.2 µM (inactive) | 12.7 µM (inactive) | – | 3.4 µM (inactive) | 2.54 µM (inactive) | 14.5 µM (inactive) | 2.88 µM (inactive) | 9.23 µM (inactive) | 20.2 µM (inactive) | 16.2 µM (inactive) | 5.08 µM (inactive) | 26.1 µM (inactive) | 1.78 µM (inactive) | – | 6.34 µM (inactive) | 8.18 µM (inactive) | 12.2 µM (inactive)
COC1(O)C(=O)c2ccccc2OC1(OC)c1ccccc1 (stereo not drawn) | 50.4 µM (inactive) | > 100 µM (inactive) | – | – | > 100 µM (inactive) | > 100 µM (inactive) | 50.4 µM (inactive) | > 100 µM (inactive) | > 100 µM (inactive) | > 100 µM (inactive) | > 100 µM (inactive) | > 100 µM (inactive) | > 100 µM (inactive) | > 100 µM (inactive) | > 100 µM (inactive) | > 100 µM (inactive) | > 100 µM (inactive) | > 100 µM (inactive) | > 100 µM (inactive) | > 100 µM (inactive)
C/C(=N\c1c2ccccc2nc2ccccc12)N(C)C | 3.28 µM (inactive) | 21.9 µM (inactive) | 9.64 µM (inactive) | – | 23 µM (inactive) | 20.5 µM (inactive) | 3.47 µM (inactive) | 13.6 µM (inactive) | 20 µM (inactive) | 14.4 µM (inactive) | 11.9 µM (inactive) | 29 µM (inactive) | 18.4 µM (inactive) | 14.6 µM (inactive) | 24.2 µM (inactive) | 21.6 µM (inactive) | 19.8 µM (inactive) | 11.5 µM (inactive) | 16.5 µM (inactive) | 13.3 µM (inactive)
COc1ccc(C2SC(=N)Nc3c2c(C)nn3C(=O)c2ccc(Cl)cc2)cc1OC (stereo not drawn) | > 10 µM (inactive) | > 10 µM (inactive) | – | > 10 µM (inactive) | > 10 µM (inactive) | > 10 µM (inactive) | > 10 µM (inactive) | > 10 µM (inactive) | > 10 µM (inactive) | > 10 µM (inactive) | > 10 µM (inactive) | > 10 µM (inactive) | > 10 µM (inactive) | > 10 µM (inactive) | > 10 µM (inactive) | > 10 µM (inactive) | > 10 µM (inactive) | > 10 µM (inactive) | > 10 µM (inactive) | > 10 µM (inactive)
CCN1C(=O)C(=C/C=C/C=C2/N(C)c3ccccc3C2(C)C)C(=O)N(CC)C1=S | > 100 µM (inactive) | > 100 µM (inactive) | > 100 µM (inactive) | > 100 µM (inactive) | – | > 100 µM (inactive) | > 10 µM (inactive) | > 100 µM (inactive) | > 100 µM (inactive) | 36.4 µM (inactive) | > 100 µM (inactive) | 64.7 µM (inactive) | – | > 10 µM (inactive) | 42.2 µM (inactive) | > 100 µM (inactive) | 53.6 µM (inactive) | > 100 µM (inactive) | 32.5 µM (inactive) | > 100 µM (inactive)
O=c1cc(CSc2c(-c3ccccc3)c(=O)n(-c3ccccc3)c(=S)n2-c2ccccc2)[nH]c(=O)[nH]1 | > 100 µM (inactive) | > 100 µM (inactive) | > 100 µM (inactive) | > 100 µM (inactive) | > 100 µM (inactive) | > 100 µM (inactive) | > 100 µM (inactive) | > 100 µM (inactive) | > 100 µM (inactive) | > 100 µM (inactive) | – | > 100 µM (inactive) | > 100 µM (inactive) | > 100 µM (inactive) | > 100 µM (inactive) | > 100 µM (inactive) | > 100 µM (inactive) | > 100 µM (inactive) | > 100 µM (inactive) | > 100 µM (inactive)
